Data taken from the C3SDB collision cross section collection.

Details: [M+H]+; instrument: TW; calibrated with polyalanine and drug standards

Row | Structure (SMILES) | collision cross section (N2)
1 | CCCNC(=O)NS(=O)(=O)c1ccc(Cl)cc1 [CHLORPROPAMIDE] | 158.5 Å²
2 | CC(C)CCC[C@@H](C)[C@H]1CC[C@H]2[C@@H]3CC=C4CC(=O)CC[C@]4(C)[C@H]3CC[C@]12C [CHOLEST-5-EN-3-ONE] | 211.4 Å²
3 | O=C(O)c1cc(=O)c2ccccc2o1 [CHROMOCARB] | 134 Å²
4 | COc1cc(OC)c2c(=O)cc(-c3ccccc3)oc2c1 [CHRYSIN DIMETHYL ETHER] | 160.5 Å²
5 | O=C1CCc2cc(OCCCCc3nnnn3C3CCCCC3)ccc2N1 [CILOSTAZOL] | 199.7 Å²
6 | C=C[C@H]1CN2CC[C@H]1C[C@H]2[C@H](O)c1ccnc2ccccc12 [CINCHONIDINE] | 168.2 Å²
7 | CC[C@H]1OC(=O)[C@H](C)[C@@H](O[C@H]2C[C@@](C)(OC)[C@@H](O)[C@H](C)O2)[C@H](C)[C@@H](O[C@@H]2O[C@H](C)C[C@H](N(C)C)[C@H]2O)[C@](C)(OC)C[C@@H](C)C(=O)[C@H](C)[C@@H](O)[C@]1(C)O [CLARITHROMYCIN] | 264.2 Å²
8 | CCC(=O)O[C@]1(C(=O)CCl)[C@@H](C)C[C@H]2[C@@H]3CCC4=CC(=O)C=C[C@]4(C)[C@@]3(F)[C@@H](O)C[C@@]21C [CLOBETASOL PROPIONATE] | 205.1 Å²
9 | CC(C)N=c1cc2n(-c3ccc(Cl)cc3)c3ccccc3nc-2cc1Nc1ccc(Cl)cc1 [CLOFAZIMINE] | 216.8 Å²
10 | Oc1ccc(Cl)c2cccnc12 [CLOXYQUIN] | 129.5 Å²
11 | C[C@H]1[C@H]2CC[C@H]3[C@@H]4CC=C5C[C@@H](N(C)C)CC[C@]5(C)[C@H]4CC[C@]23CN1C [CONESSINE] | 195.4 Å²
12 | C[C@@H]1O[C@@H](O[C@H]2CC[C@]3(C=O)[C@H]4CC[C@]5(C)[C@@H](C6=CC(=O)OC6)CC[C@]5(O)[C@@H]4CC[C@]3(O)C2)[C@H](O)[C@H](O)[C@H]1O [CONVALLATOXIN] | 238.1 Å²
13 | CN1C(=O)CC[C@H]1c1cccnc1 [COTININE] | 141.1 Å²
14 | CC(=O)Oc1c(C)cccc1C(=O)O [CRESOPIRINE] | 129.1 Å²
15 | Cc1c2oc3c(C)ccc(C(=O)N[C@@H]4C(=O)N[C@H](C(C)C)C(=O)N5CCC[C@H]5C(=O)N(C)CC(=O)N(C)[C@@H](C(C)C)C(=O)O[C@@H]4C)c3nc-2c(C(=O)N[C@@H]2C(=O)N[C@H](C(C)C)C(=O)N3CCC[C@H]3C(=O)N(C)CC(=O)N(C)[C@@H](C(C)C)C(=O)O[C@@H]2C)c(N)c1=O [DACTINOMYCIN] | 341.2 Å²
16 | O=C1c2cccc(O)c2C(=O)c2c(O)cccc21 [DANTHRON] | 148.3 Å²
17 | Nc1ccc(S(=O)(=O)c2ccc(N)cc2)cc1 [DAPSONE] | 151.7 Å²
18 | CC(C)CCCC1(C)C=Cc2c(O)c3c(c(CCC(C)C)c2O1)OC12C(CC4CC1C(C)(C)OC2(CCC(C)C(=O)O)C4O)C3=O (stereo not drawn) [DECAHYDROGAMBOGIC ACID] | 251 Å²
19 | CCCCCCCCCCOc1cc2c(=O)c(C(=O)OCC)c[nH]c2cc1OCC [DECOQUINATE] | 216.2 Å²
20 | COc1cc2c(cc1OC)[C@@H]1C(=O)c3ccc4c(c3O[C@@H]1CO2)C=CC(C)(C)O4 [DEGUELIN(-)] | 194.2 Å²

Row | Structure (SMILES) | collision cross section (N2)
21 | C=C(C)C1Cc2c(ccc3c(=O)c4c(oc23)COc2cc(OC)c(OC)cc2-4)O1 (stereo not drawn) [DEHYDROROTENONE] | 192.3 Å²
22 | COc1ccc(-c2cc(=O)c3c(O)c(OC)c(OC)c(OC)c3o2)cc1OC [DEMETHYLNOBILETIN] | 186.6 Å²
23 | CC(=O)O[C@@H]1C[C@H]2C(C)(C)C(=O)C=C[C@]2(C)[C@H]2CC[C@]3(C)C(=CC(=O)O[C@H]3c3ccoc3)[C@@]21C [DEOXYGEDUNIN] | 206.3 Å²
24 | CC(=O)O[C@H]1C[C@@H](OC(C)=O)C(C)(C)C2C[C@@H](OC(C)=O)[C@@]3(C)C4=CC(=O)O[C@@H](c5ccoc5)[C@]4(C)CCC3[C@]21C (stereo partly drawn) [DEOXYKHIVORIN] | 224.9 Å²
25 | COc1cc(OC)c2c(=O)c(-c3ccc4c(c3)OCO4)coc2c1 [DERRUSTONE] | 169.8 Å²
26 | COC(=O)[C@@H]1OC(=O)C2OC23[C@@]1(C)CCC1[C@]2(C)C(C[C@@H](O)[C@]13C)C(C)(C)[C@H](OC(C)=O)C[C@@H]2OC(C)=O (stereo partly drawn) [DESACETYL (7)KHIVORINIC ACID, METHYL ESTER] | 216.9 Å²
27 | C[C@@H]1C[C@H]2[C@@H]3CCC4=CC(=O)C=C[C@]4(C)[C@@]3(F)[C@@H](O)C[C@]2(C)[C@@]1(O)C(=O)CO [DEXAMETHASONE] | 187.9 Å²
28 | CC1=NS(=O)(=O)c2cc(Cl)ccc2N1 [DIAZOXIDE] | 143.7 Å²
29 | CCCCCC1C(=O)CCC1CC(=O)O (stereo not drawn) [DIHYDROJASMONIC ACID] | 147 Å²
30 | Cc1c(C(N)=O)cc([N+](=O)[O-])cc1[N+](=O)[O-] [DINITOLMIDE] | 143.7 Å²
31 | COc1ccc(-c2cc(=O)c3c(O)cc(O)cc3o2)cc1O [DIOSMETIN] | 164.8 Å²
32 | COc1ccc(-c2cc(=O)c3c(O)cc(O[C@@H]4O[C@H](CO[C@@H]5O[C@@H](C)[C@H](O)[C@@H](O)[C@H]5O)[C@@H](O)[C@H](O)[C@H]4O)cc3o2)cc1O [DIOSMIN] | 242.5 Å²
33 | CC(=O)Oc1ccccc1C(=O)Oc1ccccc1C(=O)O [DIPLOSALSALATE] | 159.4 Å²
34 | COc1ccc(-c2coc3c(O)c(O)c(OC)cc3c2=O)cc1 [DIPTERYXIN] | 168.5 Å²
35 | COc1cccc2c1C(=O)c1c(O)c3c(c(O)c1C2=O)C[C@@](O)(C(=O)CO)C[C@@H]3O[C@H]1C[C@H](N)[C@H](O)[C@H](C)O1 [DOXORUBICIN] | 227 Å²
36 | OCC(O)CN1CCN(c2ccccc2)CC1 (stereo not drawn) [DROPROPIZINE] | 155.7 Å²
37 | Cn1c(=O)c2c(ncn2CC(O)CO)n(C)c1=O (stereo not drawn) [DYPHYLLINE] | 152.6 Å²
38 | CC[C@H]1CN2CCc3cc(OC)c(OC)cc3[C@@H]2C[C@@H]1C[C@H]1NCCc2cc(OC)c(OC)cc21 [EMETINE] | 219.6 Å²
39 | CC1(C)[C@@H](O)CC[C@]2(C)[C@H]3C(=O)C=C4[C@@H]5C[C@@](C)(C(=O)O)CC[C@]5(C)CC[C@@]4(C)[C@]3(C)CC[C@@H]12 [ENOXOLONE] | 213.9 Å²
40 | CC(=O)Oc1cc(OC(C)=O)c2c(c1)O[C@H](c1ccc(OC(C)=O)c(OC(C)=O)c1)[C@H](OC(C)=O)C2 [EPICATECHIN PENTAACETATE] | 207.3 Å²

Row | Structure (SMILES) | collision cross section (N2)
41 | Oc1cc(O)c2c(c1)O[C@H](c1ccc(O)c(O)c1)[C@H](O)C2 [EPICATECHIN] | 161.5 Å²
42 | C[C@]12CC[C@@H]3c4ccc(O)cc4CC[C@H]3[C@@H]1C[C@H](O)[C@@H]2O [EPIESTRIOL] | 153.6 Å²
43 | C[C@]12CC[C@H]3[C@@H](CCC4=CC(=O)CC[C@@]43C)[C@@H]1CC[C@H]2O [EPITESTOSTERONE] | 170.7 Å²
44 | CC[C@H]1OC(=O)[C@H](C)[C@@H](O[C@H]2C[C@@](C)(OC)[C@@H](O)[C@H](C)O2)[C@H](C)[C@@H](O[C@@H]2O[C@H](C)C[C@H](N(C)C)[C@H]2O)[C@](C)(O)C[C@@H](C)C(=O)[C@H](C)[C@@H](O)[C@]1(C)O [ERYTHROMYCIN] | 258.1 Å²
45 | CN1CC[C@@]2(C)c3cc(O)ccc3N(C)[C@@H]12 [ESEROLINE] | 149.1 Å²
46 | CCCCC(=O)O[C@H]1CC[C@H]2[C@@H]3CCc4cc(O)ccc4[C@H]3CC[C@]12C [ESTRADIOL VALERATE] | 171 Å²
47 | CCOc1ccc2nc(S(N)(=O)=O)sc2c1 [ETHOXZOLAMIDE] | 152.7 Å²
48 | C=C(C)c1cc2cc(C(C)=O)c(O)cc2o1 [EUPARIN] | 143.2 Å²
49 | COc1c2ccoc2nc2c(OC)c(OCC(O)C(C)(C)O)ccc12 (stereo not drawn) [EVOXINE] | 181.4 Å²
50 | CCCCCCOc1ccccc1C(N)=O [EXALAMIDE] | 154.6 Å²
51 | C=C1C[C@@H]2[C@H](CC[C@]3(C)C(=O)CC[C@@H]23)[C@@]2(C)C=CC(=O)C=C12 [EXEMESTANE] | 171.1 Å²
52 | NC(N)=Nc1nc(CSCC/C(N)=N/S(N)(=O)=O)cs1 [FAMOTIDINE] | 167.2 Å²
53 | Nc1ccncc1 [FAMPRIDINE] | 117.8 Å²
54 | CC(C)OC(=O)C(C)(C)Oc1ccc(C(=O)c2ccc(Cl)cc2)cc1 [FENOFIBRATE] | 190.5 Å²
55 | CC1=C(/C=C/C(C)=C/C=C/C(C)=C/C(=O)Nc2ccc(O)cc2)C(C)(C)CCC1 [FENRETINIDE] | 200.5 Å²
56 | CCC(=O)c1c(O)cc(O)cc1O [FLOPROPIONE] | 134.3 Å²
57 | CC1CCc2cc(F)cc3c(=O)c(C(=O)O)cn1c23 (stereo not drawn) [FLUMEQUINE] | 149.8 Å²
58 | C[C@@H]1C[C@H]2[C@@H]3C[C@H](F)C4=CC(=O)C=C[C@]4(C)[C@@]3(F)[C@@H](O)C[C@]2(C)[C@@]1(O)C(=O)CO [FLUMETHASONE] | 189.2 Å²
59 | CC1(C)O[C@@H]2C[C@H]3[C@@H]4C[C@H](F)C5=CC(=O)C=C[C@]5(C)[C@@]4(F)[C@@H](O)C[C@]3(C)[C@]2(C(=O)CO)O1 [FLUOCINOLONE ACETONIDE] | 199.7 Å²

Same assay, conditions: [M+Na]+; instrument: TW; calibrated with polyalanine and drug standards

Row | Structure (SMILES) | collision cross section (N2)
60 | C[C@H](CCC(=O)O)[C@H]1CC[C@H]2[C@@H]3C(=O)C[C@@H]4CC(=O)CC[C@]4(C)[C@H]3CC(=O)[C@]12C [DEHYDROCHOLIC ACID] | 192.1 Å²
61 | CCCCOC(=O)c1ccccc1C(=O)OCCCC [DIBUTYL PHTHALATE] | 180.7 Å²
62 | C/C=C(/C(=C/C)c1ccc(O)cc1)c1ccc(O)cc1 [DIENESTROL] | 153.2 Å²
63 | CS(=O)(=O)c1ccc([C@@H](O)[C@@H](CF)NC(=O)C(Cl)Cl)cc1 [FLORFENICOL] | 170.7 Å²
